Assay results reported in the kinase profiling compilation of Christmann-Franck et al. (2016).

Tests used:
[1] = molecular target: ADCK4 (human) (UniProt Q96D53); experiment: KINOMEscan competition binding; conditions: compound 10.0 µM
[2] = molecular target: BTK (human) (UniProt Q06187); experiment: KINOMEscan competition binding; conditions: compound 10.0 µM
[3] = molecular target: CDK15 (human) (UniProt Q96Q40); experiment: KINOMEscan competition binding; conditions: compound 10.0 µM
[4] = molecular target: CIT (human) (UniProt O14578); experiment: KINOMEscan competition binding; conditions: compound 10.0 µM
[5] = molecular target: CSNK1A1 (human) (UniProt P48729); experiment: KINOMEscan competition binding; conditions: compound 10.0 µM
[6] = molecular target: DMPK (human) (UniProt Q09013); experiment: KINOMEscan competition binding; conditions: compound 10.0 µM
[7] = molecular target: DYRK2 (human) (UniProt Q92630); experiment: KINOMEscan competition binding; conditions: compound 10.0 µM
[8] = molecular target: EPHB6 (human) (UniProt O15197); experiment: KINOMEscan competition binding; conditions: compound 10.0 µM
[9] = molecular target: ERN1 (human) (UniProt O75460); experiment: KINOMEscan competition binding; conditions: compound 10.0 µM
[10] = molecular target: GRK4 (human) (UniProt P32298); experiment: KINOMEscan competition binding; conditions: compound 10.0 µM
[11] = molecular target: INSR (human) (UniProt P06213); experiment: KINOMEscan competition binding; conditions: compound 10.0 µM
[12] = molecular target: LCK (human) (UniProt P06239); experiment: KINOMEscan competition binding; conditions: compound 10.0 µM
[13] = molecular target: LIMK2 (human) (UniProt P53671); experiment: KINOMEscan competition binding; conditions: compound 10.0 µM
[14] = system: LRRK2 (human), Q5S007 [G2019S]; experiment: KINOMEscan competition binding; conditions: compound 10.0 µM
[15] = molecular target: MAP3K9 (human) (UniProt P80192); experiment: KINOMEscan competition binding; conditions: compound 10.0 µM
[16] = molecular target: MAP4K2 (human) (UniProt Q12851); experiment: KINOMEscan competition binding; conditions: compound 10.0 µM
[17] = molecular target: MAP4K4 (human) (UniProt O95819); experiment: KINOMEscan competition binding; conditions: compound 10.0 µM
[18] = molecular target: MTOR (human) (UniProt P42345); experiment: KINOMEscan competition binding; conditions: compound 10.0 µM
[19] = molecular target: MYO3A (human) (UniProt Q8NEV4); experiment: KINOMEscan competition binding; conditions: compound 10.0 µM
[20] = molecular target: NEK6 (human) (UniProt Q9HC98); experiment: KINOMEscan competition binding; conditions: compound 10.0 µM
[21] = molecular target: NUAK1 (human) (UniProt O60285); experiment: KINOMEscan competition binding; conditions: compound 10.0 µM
[22] = molecular target: PAK4 (human) (UniProt O96013); experiment: KINOMEscan competition binding; conditions: compound 10.0 µM
[23] = molecular target: PIK3C2B (human) (UniProt O00750); experiment: KINOMEscan competition binding; conditions: compound 10.0 µM
[24] = molecular target: PKN2 (human) (UniProt Q16513); experiment: KINOMEscan competition binding; conditions: compound 10.0 µM
[25] = molecular target: PRKAA2 (human) (UniProt P54646); experiment: KINOMEscan competition binding; conditions: compound 10.0 µM
[26] = molecular target: PRKCD (human) (UniProt Q05655); experiment: KINOMEscan competition binding; conditions: compound 10.0 µM
[27] = molecular target: PRKG1 (human) (UniProt Q13976); experiment: KINOMEscan competition binding; conditions: compound 10.0 µM
[28] = molecular target: ROS1 (human) (UniProt P08922); experiment: KINOMEscan competition binding; conditions: compound 10.0 µM
[29] = molecular target: RPS6KA5 KD1 (human) (UniProt O75582); experiment: KINOMEscan competition binding; conditions: compound 10.0 µM
[30] = molecular target: SRPK3 (human) (UniProt Q9UPE1); experiment: KINOMEscan competition binding; conditions: compound 10.0 µM
[31] = molecular target: STK25 (human) (UniProt O00506); experiment: KINOMEscan competition binding; conditions: compound 10.0 µM
[32] = molecular target: STK32A (human) (UniProt Q8WU08); experiment: KINOMEscan competition binding; conditions: compound 10.0 µM
[33] = molecular target: STK38 (human) (UniProt Q15208); experiment: KINOMEscan competition binding; conditions: compound 10.0 µM
[34] = molecular target: SYK (human) (UniProt P43405); experiment: KINOMEscan competition binding; conditions: compound 10.0 µM
[35] = molecular target: PI4KA (human) (UniProt P42356)
[36] = molecular target: PI4KB (human) (UniProt Q9UBF8)
[37] = molecular target: PIK3C2A (human) (UniProt O00443)
[38] = molecular target: PIK3C2B (human) (UniProt O00750)
[39] = molecular target: PIK3C3 (human) (UniProt Q8NEB9)
[40] = system: ABL1 (human), P00519 [M351T]; experiment: KINOMEscan competition binding; conditions: compound 10.0 µM
[41] = system: CPK1 (P.falciparum); experiment: KINOMEscan competition binding; conditions: compound 10.0 µM

Sequence of PIK3C2B (human) (O00750 whole entry, looked up): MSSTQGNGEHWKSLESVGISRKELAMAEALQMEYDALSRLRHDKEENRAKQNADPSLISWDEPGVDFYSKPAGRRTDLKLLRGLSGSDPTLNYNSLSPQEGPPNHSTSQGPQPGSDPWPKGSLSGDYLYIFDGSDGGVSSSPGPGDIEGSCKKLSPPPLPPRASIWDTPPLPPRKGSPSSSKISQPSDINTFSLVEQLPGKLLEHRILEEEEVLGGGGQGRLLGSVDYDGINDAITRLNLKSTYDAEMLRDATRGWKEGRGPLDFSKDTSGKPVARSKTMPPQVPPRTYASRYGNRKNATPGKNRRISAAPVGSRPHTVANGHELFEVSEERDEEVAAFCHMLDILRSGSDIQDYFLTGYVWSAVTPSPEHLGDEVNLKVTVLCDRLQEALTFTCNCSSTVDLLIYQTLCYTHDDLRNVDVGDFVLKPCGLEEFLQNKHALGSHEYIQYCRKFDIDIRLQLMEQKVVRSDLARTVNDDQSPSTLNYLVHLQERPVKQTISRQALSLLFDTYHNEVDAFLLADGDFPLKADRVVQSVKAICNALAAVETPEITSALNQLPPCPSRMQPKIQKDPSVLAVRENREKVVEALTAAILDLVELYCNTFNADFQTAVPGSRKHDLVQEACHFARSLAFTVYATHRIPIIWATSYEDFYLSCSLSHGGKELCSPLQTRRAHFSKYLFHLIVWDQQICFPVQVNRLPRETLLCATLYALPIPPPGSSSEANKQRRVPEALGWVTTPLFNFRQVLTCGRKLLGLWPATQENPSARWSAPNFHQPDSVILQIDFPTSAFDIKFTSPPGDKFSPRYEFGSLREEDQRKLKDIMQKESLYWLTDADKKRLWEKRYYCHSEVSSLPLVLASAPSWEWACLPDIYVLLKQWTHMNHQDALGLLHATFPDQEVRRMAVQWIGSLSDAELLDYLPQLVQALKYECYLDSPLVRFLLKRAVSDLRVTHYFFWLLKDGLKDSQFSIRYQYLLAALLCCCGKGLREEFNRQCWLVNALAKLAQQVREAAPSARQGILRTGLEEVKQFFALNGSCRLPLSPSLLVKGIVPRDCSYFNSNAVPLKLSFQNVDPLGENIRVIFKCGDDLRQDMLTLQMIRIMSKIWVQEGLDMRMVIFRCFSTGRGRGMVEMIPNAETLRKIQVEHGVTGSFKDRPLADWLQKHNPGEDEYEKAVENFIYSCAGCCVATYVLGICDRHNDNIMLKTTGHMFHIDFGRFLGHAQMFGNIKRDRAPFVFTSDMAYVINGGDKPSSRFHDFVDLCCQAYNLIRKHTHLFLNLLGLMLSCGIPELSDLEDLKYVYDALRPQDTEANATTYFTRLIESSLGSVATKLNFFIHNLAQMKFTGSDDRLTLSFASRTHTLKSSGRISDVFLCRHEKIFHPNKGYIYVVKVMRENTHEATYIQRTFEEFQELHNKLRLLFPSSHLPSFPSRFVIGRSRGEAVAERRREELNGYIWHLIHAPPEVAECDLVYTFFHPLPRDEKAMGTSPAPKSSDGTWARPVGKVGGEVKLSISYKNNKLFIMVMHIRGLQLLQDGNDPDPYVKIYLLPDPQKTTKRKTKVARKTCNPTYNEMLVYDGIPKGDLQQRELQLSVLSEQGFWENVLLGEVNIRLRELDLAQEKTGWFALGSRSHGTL
Sequence of STK32A (human) (Q8WU08 whole entry, looked up): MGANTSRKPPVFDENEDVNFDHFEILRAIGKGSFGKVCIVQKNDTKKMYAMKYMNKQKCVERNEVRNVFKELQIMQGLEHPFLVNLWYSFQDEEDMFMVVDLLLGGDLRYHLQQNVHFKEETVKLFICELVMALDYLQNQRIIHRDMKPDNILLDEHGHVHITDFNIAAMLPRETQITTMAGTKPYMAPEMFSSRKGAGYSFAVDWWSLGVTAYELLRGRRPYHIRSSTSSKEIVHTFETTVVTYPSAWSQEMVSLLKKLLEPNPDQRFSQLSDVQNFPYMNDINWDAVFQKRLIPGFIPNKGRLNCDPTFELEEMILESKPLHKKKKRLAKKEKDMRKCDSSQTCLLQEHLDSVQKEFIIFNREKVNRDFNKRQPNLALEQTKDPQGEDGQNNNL
Sequence of PI4KB (human) (Q9UBF8 whole entry, looked up): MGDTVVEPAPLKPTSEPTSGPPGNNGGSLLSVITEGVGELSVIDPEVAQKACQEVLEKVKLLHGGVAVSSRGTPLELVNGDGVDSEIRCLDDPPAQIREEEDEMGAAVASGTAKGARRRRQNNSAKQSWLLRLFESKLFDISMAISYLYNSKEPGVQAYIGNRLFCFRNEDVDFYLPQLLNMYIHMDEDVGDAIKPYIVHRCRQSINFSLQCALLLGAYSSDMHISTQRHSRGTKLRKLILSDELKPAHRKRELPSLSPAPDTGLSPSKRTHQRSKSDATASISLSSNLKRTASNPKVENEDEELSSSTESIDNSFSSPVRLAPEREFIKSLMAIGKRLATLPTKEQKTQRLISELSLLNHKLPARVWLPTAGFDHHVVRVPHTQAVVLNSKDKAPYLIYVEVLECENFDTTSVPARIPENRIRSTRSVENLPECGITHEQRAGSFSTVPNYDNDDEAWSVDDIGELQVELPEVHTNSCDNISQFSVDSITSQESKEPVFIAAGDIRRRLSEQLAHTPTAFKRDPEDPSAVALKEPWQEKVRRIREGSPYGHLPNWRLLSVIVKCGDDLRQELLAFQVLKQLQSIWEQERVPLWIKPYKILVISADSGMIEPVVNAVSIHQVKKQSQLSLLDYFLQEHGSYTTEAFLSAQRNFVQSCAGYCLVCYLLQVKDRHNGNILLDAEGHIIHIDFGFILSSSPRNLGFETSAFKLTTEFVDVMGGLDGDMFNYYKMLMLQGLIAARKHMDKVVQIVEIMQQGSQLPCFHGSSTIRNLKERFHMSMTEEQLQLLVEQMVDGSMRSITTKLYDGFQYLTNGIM
Sequence of LCK (human) (P06239 whole entry, looked up): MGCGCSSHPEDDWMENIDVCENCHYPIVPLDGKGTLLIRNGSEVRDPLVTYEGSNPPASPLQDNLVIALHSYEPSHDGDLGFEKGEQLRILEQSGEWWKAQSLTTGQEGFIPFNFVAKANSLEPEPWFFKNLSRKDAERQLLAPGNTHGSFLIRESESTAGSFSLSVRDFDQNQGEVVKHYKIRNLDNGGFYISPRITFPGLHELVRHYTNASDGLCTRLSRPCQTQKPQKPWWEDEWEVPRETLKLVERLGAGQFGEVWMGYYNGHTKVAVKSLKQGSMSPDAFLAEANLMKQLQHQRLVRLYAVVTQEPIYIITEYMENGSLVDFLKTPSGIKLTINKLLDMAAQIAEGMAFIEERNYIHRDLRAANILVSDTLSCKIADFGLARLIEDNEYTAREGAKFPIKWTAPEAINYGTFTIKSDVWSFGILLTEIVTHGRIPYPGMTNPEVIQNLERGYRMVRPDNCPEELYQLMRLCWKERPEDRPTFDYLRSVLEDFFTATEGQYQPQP
Sequence of PAK4 (human) (O96013 whole entry, looked up): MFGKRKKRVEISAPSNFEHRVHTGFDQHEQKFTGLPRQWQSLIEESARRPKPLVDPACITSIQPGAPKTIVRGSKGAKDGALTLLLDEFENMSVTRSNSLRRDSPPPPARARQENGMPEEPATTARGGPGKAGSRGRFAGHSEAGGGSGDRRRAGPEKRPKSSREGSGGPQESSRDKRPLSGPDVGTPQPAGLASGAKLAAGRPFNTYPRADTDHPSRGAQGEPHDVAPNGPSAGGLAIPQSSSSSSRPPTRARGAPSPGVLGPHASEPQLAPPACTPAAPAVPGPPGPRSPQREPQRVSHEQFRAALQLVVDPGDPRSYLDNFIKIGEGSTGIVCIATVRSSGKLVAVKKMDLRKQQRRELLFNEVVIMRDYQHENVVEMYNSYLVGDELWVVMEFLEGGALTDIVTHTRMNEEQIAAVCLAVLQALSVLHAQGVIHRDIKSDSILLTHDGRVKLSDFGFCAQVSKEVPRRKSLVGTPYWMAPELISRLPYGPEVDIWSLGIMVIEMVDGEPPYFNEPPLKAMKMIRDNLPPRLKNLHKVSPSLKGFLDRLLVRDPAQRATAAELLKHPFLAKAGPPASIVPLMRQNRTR
Sequence of STK25 (human) (O00506 whole entry, looked up): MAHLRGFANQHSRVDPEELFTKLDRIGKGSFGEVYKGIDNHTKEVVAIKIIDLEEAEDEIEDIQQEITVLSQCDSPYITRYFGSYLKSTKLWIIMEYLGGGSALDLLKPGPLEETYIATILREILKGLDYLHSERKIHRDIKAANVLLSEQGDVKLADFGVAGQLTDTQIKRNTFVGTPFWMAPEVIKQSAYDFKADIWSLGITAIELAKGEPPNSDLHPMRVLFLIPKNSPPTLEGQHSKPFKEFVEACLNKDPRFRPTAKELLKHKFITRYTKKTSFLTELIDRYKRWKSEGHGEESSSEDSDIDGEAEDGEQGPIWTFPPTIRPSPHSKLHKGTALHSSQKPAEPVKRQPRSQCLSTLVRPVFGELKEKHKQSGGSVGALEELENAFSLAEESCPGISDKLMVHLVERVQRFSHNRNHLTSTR
Sequence of CDK15 (human) (Q96Q40 whole entry, looked up): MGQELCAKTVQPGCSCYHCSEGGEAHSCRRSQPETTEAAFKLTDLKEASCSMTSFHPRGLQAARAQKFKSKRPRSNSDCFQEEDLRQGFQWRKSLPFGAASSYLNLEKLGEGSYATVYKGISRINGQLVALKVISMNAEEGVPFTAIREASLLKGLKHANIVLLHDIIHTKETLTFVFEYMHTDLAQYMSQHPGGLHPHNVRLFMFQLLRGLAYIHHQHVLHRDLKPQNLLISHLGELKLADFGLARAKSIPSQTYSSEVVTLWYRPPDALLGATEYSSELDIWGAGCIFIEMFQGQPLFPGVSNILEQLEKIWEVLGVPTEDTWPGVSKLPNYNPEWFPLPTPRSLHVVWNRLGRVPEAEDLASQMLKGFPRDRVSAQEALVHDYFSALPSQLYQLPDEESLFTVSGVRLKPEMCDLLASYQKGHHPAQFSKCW

CC(C)n1nc(-c2cc3cc(O)ccc3[nH]2)c2c(N)ncnc21
kinase still bound, per cent of control [1]: 13%
kinase still bound, per cent of control [2]: 22%
per cent of control [3]: 96%
kinase still bound, per cent of control [4]: 66%
kinase still bound, per cent of control [5]: 3.6%
kinase still bound, per cent of control [6]: 0.55%
kinase still bound, per cent of control [7]: 1.4%
kinase still bound, per cent of control [8]: 5.3%
kinase still bound, per cent of control [9]: 31%
kinase still bound, per cent of control [10]: 83%
kinase still bound, per cent of control [11]: 100%
kinase still bound, per cent of control [12]: 0.95%
kinase still bound, per cent of control [13]: 77%
kinase still bound, per cent of control [14]: 2.6%
kinase still bound, per cent of control [15]: 32%
kinase still bound, per cent of control [16]: 0%
kinase still bound, per cent of control [17]: 38%
kinase still bound, per cent of control [18]: 0%
kinase still bound, per cent of control [19]: 12%
kinase still bound, per cent of control [20]: 100%
kinase still bound, per cent of control [21]: 86%
kinase still bound, per cent of control [22]: 13%
kinase still bound, per cent of control [23]: 5.6%
kinase still bound, per cent of control [24]: 86%
kinase still bound, per cent of control [25]: 67%
kinase still bound, per cent of control [26]: 39%
kinase still bound, per cent of control [27]: 100%
kinase still bound, per cent of control [28]: 100%
kinase still bound, per cent of control [29]: 100%
kinase still bound, per cent of control [30]: 83%
kinase still bound, per cent of control [31]: 53%
kinase still bound, per cent of control [32]: 1.8%
kinase still bound, per cent of control [33]: 60%
kinase still bound, per cent of control [34]: 100%
IC50 [35]: > 10 µM
IC50 [36]: 2.13 µM
IC50 [37]: 0.866 µM
IC50 [38]: 0.0829 µM
IC50 [39]: > 10 µM

COc1ccc(-c2ccc3c(N4CCOCC4)nc(N4C[C@@H](C)O[C@@H](C)C4)nc3n2)cc1CO
kinase still bound, per cent of control [40]: 100%
kinase still bound, per cent of control [1]: 87%
kinase still bound, per cent of control [2]: 100%
per cent of control [3]: 95%
kinase still bound, per cent of control [4]: 96%
kinase still bound, per cent of control [41]: 100%
kinase still bound, per cent of control [5]: 100%
kinase still bound, per cent of control [6]: 86%
kinase still bound, per cent of control [7]: 63%
kinase still bound, per cent of control [8]: 83%
kinase still bound, per cent of control [9]: 89%
kinase still bound, per cent of control [10]: 67%
kinase still bound, per cent of control [11]: 97%
kinase still bound, per cent of control [12]: 98%
kinase still bound, per cent of control [13]: 94%
kinase still bound, per cent of control [14]: 100%
kinase still bound, per cent of control [15]: 88%
kinase still bound, per cent of control [16]: 86%
kinase still bound, per cent of control [17]: 88%
kinase still bound, per cent of control [18]: 0%
kinase still bound, per cent of control [19]: 97%
kinase still bound, per cent of control [20]: 96%
kinase still bound, per cent of control [21]: 76%
kinase still bound, per cent of control [22]: 86%
kinase still bound, per cent of control [23]: 85%
kinase still bound, per cent of control [24]: 100%
kinase still bound, per cent of control [25]: 100%
kinase still bound, per cent of control [26]: 100%
kinase still bound, per cent of control [27]: 91%
kinase still bound, per cent of control [28]: 100%
kinase still bound, per cent of control [29]: 100%
kinase still bound, per cent of control [30]: 75%
kinase still bound, per cent of control [31]: 100%
kinase still bound, per cent of control [32]: 67%
kinase still bound, per cent of control [33]: 55%
kinase still bound, per cent of control [34]: 100%
IC50 [35]: > 10 µM
IC50 [36]: > 10 µM
IC50 [37]: > 10 µM
IC50 [38]: > 10 µM
IC50 [39]: > 10 µM
